Legend:
[1] = test system: phosphorylated MLC (downstream effector of RhoA); assay: Western blotting of phosphorylated MLC, serum starvation-restimulation; format: cell-based, human; conditions: HCT116, serum starvation-restimulation
Experimental: Anti-RhoA (#2117), anti-GAPDH (#2118), anti-phosphoMLC (#3671), anti-MLC (#3672), anti-FLAG (#8146), anti-GFP (#2956), and anti-GST (#2624) were purchased from Cell Signaling Technology. Cells were washed with PBS and then harvested using cell lysis buffer (1% Triton X100, 10 mM beta glycerol phosphate, 10 mM sodium pyrophosphate, 40 mM HEPES, 4 mM EDTA, pH7.4) with 4% protease/phosphatase inhibitor cocktail (Pierce). Protein samples were quantified using BCA assays (Pierce), normalized and then boiled with 4× Laemmli sampling buffer in 95° C. for 5 mins. Samples were resolved in 10% polyacrylamide gel (Biorad) and then transferred onto PVDF membrane (Biorad) and blocked with blocking buffer (5% bovine serum albumin (BSA) in Tris-buffered saline with 0.1% Tween 20 (TBST)) for 1 h. Membrane was washed in TBST, followed by incubation with corresponding primary antibodies (diluted 1:1000 in 5% BSA/milk in TBST with 1% NaN3) overnight at 4° C. After washing thrice with TBST, the membrane was incubated with HRP-conjugated secondary antibodies (#7074 or 7076) for one hour at room temperature. The membrane was then incubated with LumiGlo reagent (Cell Signaling Technology) and chemiluminescence was captured using a Chemidoc (Biorad).
The effects of CL16 on RhoA downstream signals in CRCs with serum starvation-restimulation were examined.

[2] = test system: HT29 xenograft; assay: Mouse HT29 xenograft model; format: in vivo
Experimental: FIG. 7A is a graph showing inhibition of tumor growth by CL16 in mouse HCT116 xenografts through intraperitoneal injection at 10 mg/kg (n=6 per group). FIG. 7B is a graph showing inhibition of tumor growth by CL16 in mouse HT29 xenografts through intraperitoneal injection at 10 mg/kg (n=7). FIG. 7C is a graph showing the body weight of mice with HT29 xenografts throughout the treatment with CL16. FIG. 7D is a graph showing inhibition of tumor growth by CL16 in mouse SW620 xenografts through intraperitoneal injection at 10 mg/kg (n=6 per group). FIG. 7E is a bar graph showing the tumor weight of harvested tumors from the treated mice with SW620 xenografts. FIG. 7F is a graph showing the body weight of mice with SW620 xenografts throughout the treatment with CL16. Statistical analysis using a two-tailed Student's t-test. *P<0.05.
7-week-old mice with weight around 20 g were inoculated subcutaneously with HCT116 (2×10^6 cells per mouse) or HT29 (3×10^6 cells per mouse) cells, in serum-free RMPI or Matrigel in PBS respectively. […] The tumor volume and body weight of the nude mice were measured throughout the treatment. The tumor volume was calculated by the equation: Volume (mm^3)=1×w^2/2, where 1 and w were the length and width of the tumor. At the end of the treatment, the mice were sacrificed and the tumor weight was measured. […]

[3] = biological target: T1, RhoA (Homo sapiens, UniProt P61586); assay: RhoA-GTP rhotekin pull-down in HT29 cells, complete medium; format: cell-based; set-up: endogenous in cells; host or cells: HCT116, HT29; conditions: HT29, complete medium 24 h
T1 sequence (P61586 whole entry, the tested form may be a part): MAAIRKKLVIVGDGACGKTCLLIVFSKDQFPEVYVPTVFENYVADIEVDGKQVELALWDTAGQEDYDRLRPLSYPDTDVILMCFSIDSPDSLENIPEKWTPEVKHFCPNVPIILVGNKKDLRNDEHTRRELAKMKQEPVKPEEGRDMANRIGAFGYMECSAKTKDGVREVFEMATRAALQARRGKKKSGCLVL
Experimental: RhoA Pull-Down Activation Assay Biochem Kit (#BK036) was purchased from Cytoskeleton. According to the manufacturer's protocol, total cell lysate (0.5 mg/mL; 300 μL) was added to 7.5 μL of Rhotekin-Rho Binding Domain beads in 0.6 mL tubes. The solution mixture was incubated at 4° C. on an end-to-end rotator for 1 hour. Beads were washed with 500 μL of washing buffer once, then centrifuged at 5000g for 3 min and the supernatant was discarded. RhoA-GTP was then eluted in 2× laemmli buffer and resolved in 10% SDS-PAGE.
GTP loading onto RhoA is critical for the protein activation and mediating downstream signals. In view of the inhibitions of GDP-to-GTP exchange of RhoA by CL16 in vitro as discussed above, effects of CL16 on RhoA biology in colorectal cancer cells were examined. In the serum starvation-re-stimulation experiment, HCT116 cells were grown in serum-free medium with CL16, Rhosin or solvent control for 24 h, followed by stimulation with 10% FBS for 10 min. The cells were then lysed and the RhoA activity was assayed by the level of RhoA-GTP, which is the active form of RhoA. […] HT29 cells were incubated with solvent vehicle, CL16 or Rhosin in complete medium for 24 h. […] Confocal fluorescence images from HCT116 and HT29 cells expressing FRET RhoA-biosensor in the serum starvation-restimulation experiment were taken.

[4] = biological target: T1, RhoA; assay: GDP-GTP exchange assay (BODIPY-GTP); format: biochemical; set-up: purchased ab101594; conditions: fluorescence-based exchange assay
Experimental: Recombinant human RhoA protein (0.2 μg; ab101594) was incubated with GDP (50 nM) in 100 μL of GTP-exchange buffer (20 mM HEPES, 150 mM NaCl, 5 mM MgCl2, pH 7.4) at room temperature for 1 h. CL16 or solvent control was then added to the solution mixture and incubated at room temperature for another hour. For self-exchange assay, BODIPY-GTP (100 nM) was added to the solution and the fluorescence from plate was measured every 30 s. For LARG-mediated GDP-to-GTP exchange, BODIPY-GTP (100 nM) and LARG DH-PH protein (30 nM) were added to the solution mixture and the fluorescence from plate was measured every 30 s. BODIPY-GTP was excited at 477±14 nm and its fluorescence was measured at 525±30 nm using a plate reader (Clariostar).

[5] = biological target: T1, RhoA; assay: Fluorescence-based assay of Dbs-mediated GTP binding onto RhoA; format: biochemical; conditions: increasing concentrations of CL16

RhoA activity (RhoA-GTP) [3]: specific inhibition of RhoA activity
GDP-to-GTP self-exchange [4]: significant decreases
LARG-mediated GDP-to-GTP exchange [4]: significant decreases
kinetics of Dbs-mediated GTP binding onto RhoA [5]: significant decrease in the kinetics
Structure (SMILES): O=C(CCl)N1N=C(c2cc3ccccc3o2)CC1c1ccco1 (stereo not shown) [CL16]
phosphorylation of MLC upon serum re-stimulation [1]: significantly eliminated the increases in phosphorylation of MLC
body weight, treated vs untreated ([2]; HT29 xenografts, FIG. 7C): no observable difference
tumor growth vs vehicle control ([2]; nude mice, 10 mg/kg intraperitoneal): significantly inhibited tumor growth
